In US20210101874A1, “MICROBIOCIDAL OXADIAZOLE DERIVATIVES” (SYNGENTA PARTICIPATIONS AG, priority 2017, published 2021):

Columns and labels:
[1] = test system: Puccinia recondita f. sp. Tritici; experiment: Puccinia recondita f. sp. tritici / wheat / leaf disc preventative (brown rust); type: in vivo; conditions: foliar, 200 ppm in the applied formulation, wheat leaf segments cv. Kanzler, inoculated 1 day after application, compared to untreated, assessed 7 to 9 days after application, read-out: disease control
Method in brief: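 Wheat leaf segments (cv. Kanzler) on water agar were sprayed with test compound (DMSO stock diluted in 0.025% Tween20/water), then spore-inoculated 1 day later. Incubation at 19° C., 75% rh, 12 h light/12 h dark; percent disease control versus untreated segments scored 7 to 9 days after application. Tested at 200 ppm.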

[2] = test system: Puccinia recondita f. sp. Tritici; experiment: Puccinia recondita f. sp. tritici / wheat / leaf disc curative (brown rust); type: in vivo; conditions: foliar, 200 ppm in the applied formulation, wheat leaf segments cv. Kanzler, applied 1 day after inoculation, compared to untreated, assessed 6 to 8 days after application, read-out: disease control
Method in brief: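 Curative test: wheat leaf segments cv. Kanzler on agar inoculated with spore suspension, kept dark at 19 °C/75% RH, then sprayed 1 day post-inoculation with compound diluted in water. Incubated at 19 °C, 75% RH, 12 h light/dark; percent disease control versus untreated scored 6–8 days after application.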

Phakopsora pachyrhizi = Phakopsora pachyrhizi / soybean / leaf disc preventative (Asian soybean rust); type: in vivo; conditions: foliar, 200 ppm in the applied formulation, soybean leaf disks, inoculated one day after application, compared to untreated, assessed 12 to 14 days after application, read-out: disease control
Experimental: Leaf disks or leaf segments of various plant species are cut from plants grown in a greenhouse. The cut leaf disks or segments are placed in multiwell plates (24-well format) onto water agar. The leaf disks are sprayed with a test solution before (preventative) or after (curative) inoculation. Compounds to be tested are prepared as DMSO solutions (max. 10 mg/ml) which are diluted to the appropriate concentration with 0.025% Tween20 just before spraying. The inoculated leaf disks or segments are incubated under defined conditions (temperature, relative humidity, light, etc.) according to the respective test system. A single evaluation of disease level is carried out 3 to 14 days after inoculation, depending on the pathosystem. Percent disease control relative to the untreated check leaf disks or segments is then calculated.
Soybean leaf disks are placed on water agar in multiwell plates (24-well format) and sprayed with the formulated test compound diluted in water. One day after application leaf discs are inoculated by spraying a spore suspension on the lower leaf surface. After an incubation period in a climate cabinet of 24-36 hours in darkness at 20° C. and 75% rh leaf disc are kept at 20° C. with 12 h light/day and 75% rh. The activity of a compound is assessed as percent disease control compared to untreated when an appropriate level of disease damage appears in untreated check leaf disks (12 to 14 days after application).
The following compounds at 200 ppm in the applied formulation give at least 80% disease control in this test when compared to untreated control leaf disks under the same conditions, which show extensive disease development.

[3] = test system: Glomerella lagenarium (Colletotrichum lagenarium); experiment: Glomerella lagenarium (Colletotrichum lagenarium) liquid culture / cucumber / preventative (anthracnose); type: cell-based; conditions: Colletotrichum orbiculare; 20 ppm in the applied formulation; conidia in PDB nutrient broth, 24° C.; 3 to 4 days after application; compared to untreated; read-out: disease control (inhibition of growth measured photometrically)
Method in brief: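 Cryostored conidia in potato dextrose broth added to compound diluted from DMSO solution, 96-well format. Plates incubated at 24 °C. Growth inhibition read photometrically 3 to 4 days after application, as percent activity versus untreated check.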

Compound | pest or weed control at 200 ppm [1] | pest or weed control at 200 ppm [2] | pest or weed control at 200 ppm (Phakopsora pachyrhizi) | inhibition at 20 ppm [3] | melting point
CCS(=O)(=O)N(Cc1ccc(-c2noc(C(F)(F)F)n2)cc1)C1CC1 [Compound 1.1, N-cyclopropyl-N-[[4-[5-(trifluoromethyl)-1,2,4-oxadiazol-3-yl]phenyl]methyl] ethanesulfonamide] | ≥ 80% | ≥ 80% | ≥ 80% | ≥ 80% | 86 to 88 °C
O=S(=O)(C1CC1)N(Cc1ccc(-c2noc(C(F)(F)F)n2)cc1)C1CC1 [Compound 1.2, N-cyclopropyl-N-[[4-[5-(trifluoromethyl)-1,2,4-oxadiazol-3-yl]phenyl]methyl] cyclopropanesulfonamide] | ≥ 80% |  | ≥ 80% | ≥ 80% | 90 to 92 °C
CCS(=O)(=O)N(Cc1ccc(-c2noc(C(F)(F)F)n2)cc1)OC [Compound 1.3, N-methoxy-N-[[4-[5-(trifluoromethyl)-1,2,4-oxadiazol-3-yl]phenyl]methyl] ethanesulfonamide] | ≥ 80% | ≥ 80% | ≥ 80% | ≥ 80% | 44 to 46 °C
CS(=O)(=O)N(Cc1ccc(-c2noc(C(F)(F)F)n2)cc1)C1CC1 [Compound 1.8, N-cyclopropyl-N-[[4-[5-(trifluoromethyl)-1,2,4-oxadiazol-3-yl]phenyl]methyl] methanesulfonamide] | ≥ 80% | ≥ 80% | ≥ 80% | ≥ 80% | 84 to 86 °C
CN(Cc1ccc(-c2noc(C(F)(F)F)n2)cc1)S(=O)(=O)C1CC1 [Compound 1.10, N-methyl-N-[[4-[5-(trifluoromethyl)-1,2,4-oxadiazol-3-yl]phenyl]methyl] cyclopropanesulfonamide] | ≥ 80% | ≥ 80% | ≥ 80% | ≥ 80% | 102 to 105 °C
CN(Cc1ccc(-c2noc(C(F)(F)F)n2)cc1)S(C)(=O)=O [Compound 1.11, N-methyl-N-[[4-[5-(trifluoromethyl)-1,2,4-oxadiazol-3-yl]phenyl]methyl] methanesulfonamide] | ≥ 80% | ≥ 80% | ≥ 80% | ≥ 80% | 103 to 105 °C
CN(C)S(=O)(=O)N(C)Cc1ccc(-c2noc(C(F)(F)F)n2)cc1 [Compound 1.12, N-(dimethylsulfamoyl)-N-methyl-1-[4-[5-(trifluoromethyl)-1,2,4-oxadiazol-3-yl]phenyl] methanamine] | ≥ 80% | ≥ 80% | ≥ 80% | ≥ 80% | 77 to 79 °C
CCS(=O)(=O)N(C)Cc1ccc(-c2noc(C(F)(F)F)n2)cc1 [Compound 1.13, N-methyl-N-[[4-[5-(trifluoromethyl)-1,2,4-oxadiazol-3-yl]phenyl]methyl] ethanesulfonamide] | ≥ 80% | ≥ 80% | ≥ 80% | ≥ 80% | 85 to 88 °C
CN(Cc1ccc(-c2noc(C(F)(F)F)n2)cc1)S(=O)(=O)N1CCOCC1 [Compound 1.15, N-methyl-N-[[4-[5-(trifluoromethyl)-1,2,4-oxadiazol-3-yl]phenyl]methyl] morpholine-4-sulfonamide] | ≥ 80% | ≥ 80% | ≥ 80% | ≥ 80% | 118 to 120 °C
CCNS(=O)(=O)N(C)Cc1ccc(-c2noc(C(F)(F)F)n2)cc1 [Compound 1.16, 3-[4-[[ethylsulfamoyl (methyl)amino]methyl]phenyl]-5-(trifluoromethyl)-1,2,4-oxadiazole] | ≥ 80% | ≥ 80% | ≥ 80% | ≥ 80% | 63 to 66 °C
CCNS(=O)(=O)N(Cc1ccc(-c2noc(C(F)(F)F)n2)cc1)C1CC1 [Compound 1.17, 3-[4-[[cyclopropyl (ethylsulfamoyl)amino]methyl]phenyl]-5-(trifluoromethyl)-1,2,4-oxadiazole] | ≥ 80% | ≥ 80% | ≥ 80% | ≥ 80% | 108 to 110 °C
CCN(Cc1ccc(-c2noc(C(F)(F)F)n2)cc1F)S(C)(=O)=O [Compound 1.103, N-ethyl-N-[[2-fluoro-4-[5-(trifluoromethyl)-1,2,4-oxadiazol-3-yl]phenyl]methyl] methanesulfonamide] | ≥ 80% | ≥ 80% | ≥ 80% | ≥ 80% | 90 to 93 °C
CCN(Cc1ccc(-c2noc(C(F)(F)F)n2)c(F)c1F)S(C)(=O)=O [Compound 1.104, N-[[2,3-difluoro-4-[5-(trifluoromethyl)-1,2,4-oxadiazol-3-yl]phenyl]methyl]-N-ethyl-methanesulfonamide] | ≥ 80% | ≥ 80% | ≥ 80% | ≥ 80% | 81 to 93 °C
COCCS(=O)(=O)NCc1ccc(-c2noc(C(F)(F)F)n2)cc1 [Compound 2.1, 2-methoxy-N-[[4-[5-(trifluoromethyl)-1,2,4-oxadiazol-3-yl]phenyl]methyl] ethanesulfon-amide] | ≥ 80% | ≥ 80% | ≥ 80% | ≥ 80% | 97 to 100 °C
CCCS(=O)(=O)Nc1ccc(-c2noc(C(F)(F)F)n2)cc1 [Compound 2.38, N-[4-[5-(trifluoromethyl)-1,2,4-oxadiazol-3-yl]phenyl]propane-1-sulfonamide] |  |  | ≥ 80% | ≥ 80% | 65 to 75 °C
O=S(=O)(NCc1ccc(-c2noc(C(F)(F)F)n2)cc1)c1ccccc1F [Compound 3.7, 2-fluoro-N-[[4-[5-(trifluoromethyl)-1,2,4-oxadiazol-3-yl]phenyl]methyl] benzenesulfonamide] | ≥ 80% |  | ≥ 80% | ≥ 80% | 120 to 123 °C
O=S(=O)(Nc1ccc(-c2noc(C(F)(F)F)n2)cc1)C1CC1 [Compound 3.33, N-[4-[5-(trifluoromethyl)-1,2,4-oxadiazol-3-yl]phenyl]cyclo-propanesulfonamide] | ≥ 80% |  | ≥ 80% | ≥ 80% | 130 to 140 °C
O=S(=O)(Nc1ccc(-c2noc(C(F)(F)F)n2)cc1)c1ccccc1 [Compound 3.35, N-[4-[5-(trifluoromethyl)-1,2,4-oxadiazol-3-yl]phenyl]benzene-sulfonamide] | ≥ 80% |  | ≥ 80% | ≥ 80% | 115 to 130 °C
